Laboratory results from ChEMBL document CHEMBL3813632, “Thiazolo[3,2-a]benzimidazol-3(2H)-one derivatives: Structure-activity relationships of selective nucleotide pyrophosphatase/phosphodiesterase1 (NPP1) inhibitors” (Bioorg Med Chem, 2016).
Activity calls are given as the source filed them. The calls are words filed in the database; no cut-off is given here.

Tests used:
[1] = target: T1, Alkaline phosphatase, tissue-nonspecific isozyme (Homo sapiens) (UniProt P05186); experiment: Inhibition of human recombinant TNAP expressed in NS0 cells using p-nitrophenyl phosphate as substrate at 10 to 1000 uM preincubated with substrate followed by protein addition and subsequent incubation for 30 mins by colorimetric analysis
T1 sequence (whole entry): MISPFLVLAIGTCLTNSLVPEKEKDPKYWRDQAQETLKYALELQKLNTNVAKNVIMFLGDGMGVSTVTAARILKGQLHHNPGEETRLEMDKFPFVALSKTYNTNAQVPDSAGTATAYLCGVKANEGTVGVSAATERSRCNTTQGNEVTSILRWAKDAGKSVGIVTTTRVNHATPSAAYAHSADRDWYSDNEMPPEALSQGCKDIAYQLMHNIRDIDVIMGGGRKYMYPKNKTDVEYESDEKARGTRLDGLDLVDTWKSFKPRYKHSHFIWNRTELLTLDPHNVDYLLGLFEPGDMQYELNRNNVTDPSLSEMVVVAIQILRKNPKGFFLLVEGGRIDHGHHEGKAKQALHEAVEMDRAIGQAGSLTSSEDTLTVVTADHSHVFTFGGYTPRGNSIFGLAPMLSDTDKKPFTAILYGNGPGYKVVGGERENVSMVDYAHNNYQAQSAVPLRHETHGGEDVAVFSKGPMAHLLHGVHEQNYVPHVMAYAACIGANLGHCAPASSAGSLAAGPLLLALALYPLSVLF

[2] = target: T2, Ectonucleoside triphosphate diphosphohydrolase 1 (Homo sapiens) (UniProt P49961); experiment: Inhibition of human recombinant soluble NTPDase1 expressed in CHO cells using ATP as substrate at 10 to 1000 uM preincubated with substrate followed by protein addition and subsequent incubation for 30 mins by capillary electrophoresis
T2 sequence (whole entry): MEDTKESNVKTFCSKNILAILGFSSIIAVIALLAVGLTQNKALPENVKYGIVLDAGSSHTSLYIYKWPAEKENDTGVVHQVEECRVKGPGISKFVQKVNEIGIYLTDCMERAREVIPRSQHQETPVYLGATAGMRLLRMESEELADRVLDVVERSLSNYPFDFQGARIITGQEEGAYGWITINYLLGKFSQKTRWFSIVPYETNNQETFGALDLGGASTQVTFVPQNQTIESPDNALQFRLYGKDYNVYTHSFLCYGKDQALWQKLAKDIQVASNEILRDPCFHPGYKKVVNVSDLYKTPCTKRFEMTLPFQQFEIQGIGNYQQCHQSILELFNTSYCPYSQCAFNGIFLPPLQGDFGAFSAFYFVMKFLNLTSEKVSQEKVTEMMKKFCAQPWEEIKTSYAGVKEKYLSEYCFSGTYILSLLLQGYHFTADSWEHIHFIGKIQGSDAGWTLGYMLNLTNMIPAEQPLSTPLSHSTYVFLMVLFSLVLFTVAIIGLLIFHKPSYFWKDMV

[3] = Chemical stability of the compound at pH 9 at 25 degC after 8 hrs by HPLC-MS analysis; assay type: physicochemical; details: buffer, pH 9, 8 h
[4] = Chemical stability of the compound assessed as compound remaining at pH 9 at 37 degC after 8 hrs by HPLC-MS analysis; assay type: physicochemical; details: buffer, read-out: Stability
[5] = target: T3, Ectonucleotide pyrophosphatase/phosphodiesterase family member 1 (Homo sapiens) (UniProt P22413); experiment: Uncompetitive inhibition of human recombinant NPP1 expressed in insect SF9 cells using ATP as substrate up to 2.8 uM preincubated with substrate followed by protein addition and subsequent incubation for 30 mins by Hanes-Woolf plot analysis
T3 sequence (whole entry): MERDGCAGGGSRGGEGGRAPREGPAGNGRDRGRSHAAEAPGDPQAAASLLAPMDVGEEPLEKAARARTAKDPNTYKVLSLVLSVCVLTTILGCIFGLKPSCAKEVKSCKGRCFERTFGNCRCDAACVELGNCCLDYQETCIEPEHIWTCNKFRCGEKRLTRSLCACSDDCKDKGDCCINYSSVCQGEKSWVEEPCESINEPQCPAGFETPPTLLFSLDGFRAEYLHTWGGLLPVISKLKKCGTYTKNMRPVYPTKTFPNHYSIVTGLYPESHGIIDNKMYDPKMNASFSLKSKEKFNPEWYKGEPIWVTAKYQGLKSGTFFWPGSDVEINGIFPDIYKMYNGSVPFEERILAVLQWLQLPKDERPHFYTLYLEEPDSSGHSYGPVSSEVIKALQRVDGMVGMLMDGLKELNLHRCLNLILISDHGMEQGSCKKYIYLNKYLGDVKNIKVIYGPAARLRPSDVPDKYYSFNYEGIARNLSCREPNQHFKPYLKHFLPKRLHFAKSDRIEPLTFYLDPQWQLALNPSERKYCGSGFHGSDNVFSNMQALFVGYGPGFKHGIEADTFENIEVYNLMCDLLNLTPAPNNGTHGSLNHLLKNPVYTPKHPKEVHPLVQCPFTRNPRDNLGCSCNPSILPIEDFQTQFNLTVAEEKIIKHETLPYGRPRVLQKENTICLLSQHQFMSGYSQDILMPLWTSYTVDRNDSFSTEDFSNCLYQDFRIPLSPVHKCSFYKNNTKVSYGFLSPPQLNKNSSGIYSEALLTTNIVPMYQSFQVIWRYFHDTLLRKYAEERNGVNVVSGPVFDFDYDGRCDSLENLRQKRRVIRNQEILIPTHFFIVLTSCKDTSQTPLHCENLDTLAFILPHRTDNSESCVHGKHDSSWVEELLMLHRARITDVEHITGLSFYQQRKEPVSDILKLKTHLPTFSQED

[6] = species: Homo sapiens; experiment: Selectivity ratio of Ki for human recombinant NPP2 to Ki for human recombinant NPP1
[7] = Chemical stability of the compound assessed as compound remaining at pH 9 at 37 degC after 24 hrs by HPLC-MS analysis; assay type: physicochemical; details: buffer, read-out: Stability
[8] = Chemical stability of the compound assessed as compound remaining at pH 9 at 25 degC after 24 hrs by HPLC-MS analysis; assay type: physicochemical; details: buffer, read-out: Stability
[9] = species: Homo sapiens; experiment: Selectivity ratio of Ki for human recombinant TNAP to Ki for human recombinant NPP1

O=c1/c(=C/c2ccc(I)o2)sc2nc3ccccc3n12
inhibition [1]: inactive | inhibition [2]: inactive | Stability [3]: Stable | remaining at 8 h [4]: 70.5% | inhibition [5]: Active | Ratio Ki [6]: 1000 | remaining at 24 h [7]: 27.4% | remaining at 24 h [8]: 52.4% | Ratio Ki [9]: 1000
